Laboratory results published in patent publication US11229628B2, “TRPA1 and TRPV4 inhibitors and methods of using the same for organ-specific inflammation and itch” (Duke University, priority 2015, dated 2022).
“Also recorded” adds a separate entry of the source.

How the values were obtained:
[1] = system: periostin secretion by keratinocytes; experiment: Periostin secretion by keratinocytes in response to histamine; format: cell-based
Excerpt: As detailed in the Examples, secretion of periostin (93 kDa protein) by keratinocytes in response to histamine exposure is dependent on TRPV4. […] Periostin has a role in chronic allergic skin inflammation and also pathologic-fibrotic remodeling of the skin. Histamine activates TRPV4 channels via specific activation of histamine H1R-receptors in keratinocytes. This TRPV4-dependent calcium influx regulates release of periostin from keratinocytes. In terms of fibrotic tissue remodeling of organs, TRPV4 channels expressed by fibroblasts may have a role in lung fibrosis evoked by bleomycin, which may relate to fibroblasts elsewhere, including skin fibroblasts and synovial fibroblasts. Inhibitors as detailed herein may potently block TRPV4 activation in keratinocytes and also skin fibroblasts. Based on the above signaling mechanisms, this will attenuate and prevent fibrotic responses in the skin, also chronic skin-remodeling tissue responses mediated by endogenous pathogenetic mediator molecules such as periostin. As for synovia of the joint, one response to joint trauma is development of synovial fibrosis and contracture. Synoviocytes, synovial fibroblasts and infiltrating inflammatory cells may have roles in this maladaptive response, as all of these cells are known to express TRPV4. […]

[2] = system: mouse primary keratinocytes; experiment: Histamine receptor-mediated Ca++ transients in mouse primary keratinocytes (fura-2); format: cell-based
Description: Mouse primary keratinocytes were prepared as described in Moore et al. (Proc Natl Acad Sci USA, 2013, 110, E3225-3416). Cells were pre-treated, for 10 min with 10 μM GSK205. Then 100 μM of each, histamine, 2-Pyridylethylamine (selective activator for H1R), and 4-Methylhistamine (selective activator for H4R; both H1R and H4R known to be expressed in rodent and human keratinocytes), were applied, and fura-2 loaded keratinocytes were imaged ratiometrically, as described (Moore et al. Proc Natl Acad Sci USA, 2013, 110, E3225-3416; Li, et al. Environ Health Perspect, 2011, 119, 784-9316). Shown in blue (top curve) is the average signal of ≥75 cells. Note the robust signal for histamine, and in response to selective activator of H1R, less prominent for H4R, in keeping with previous findings on expression levels of these channels in keratinocytes.

ET1 expression in 1° MK = experiment: ET1 expression by UVB-exposed 1° MK (immunocytochemistry); format: cell-based, mouse; conditions: 295 nm UVB-LED, 24 hours
Description: 1° MK were exposed to UVB using the UV optical system (295 nm LED). 24 hours later the cells were fixed and fluorescently immunolabeled for ET1. Digital images were captured and subjected to morphometry.
Mouse keratinocytes were cultured on collagen coated quartz coverslips and then stimulated from the bottom using the previously mentioned UV optical system using the 295 nm LED. 24 hours later the cells were fixed in 4% formaldehyde in PBS for 20 minutes, permeabilized with 0.1% Triton X-100 in PBS for 10 minutes, washed, then blocked in 10% normal goat serum in PBS for 45 minutes. Coverslips were incubated overnight with primary antibody mouse anti-ET1 (1:200; Abcam), washed three times in PBS and incubated with secondary antibody for 2 hours at 25° C. Coverslips were washed three times in PBS, once with double-distilled H2O. Digital images were captured using a 40× immersion lens on the BX61 Olympus upright microscope. Morphometric analysis was conducted using ImageJ freeware with tailored regions-of-interest.
We tested whether UVB causes ET1 upregulation in a TRPV4-dependent manner. Given the exquisite wave-length dependence of ET1 expression in 1° MKs, we resorted to the UVB-LED device as for Ca++ imaging (FIG. 6A and FIG. 2A-D). […] Consistent with its effects on UVB-evoked Ca++ transients, PLC-inhibitor U73122 also dampened ET1 expression. […] This leads to TRPV4-dependent Ca++ signaling, which in turn amplifies ET1 signaling in a paracrine/autocrine fashion.

[3] = UVB permeation of foot-pad skin (sunscreen test); set-up: species or system mouse; conditions: topically applied; GSK205 5 mM
Description: The UV LED was powered with 20 mA of current, resulting in 500 μW of optical power in a circular focal spot 1.5 mm in diameter, with 70% of the total flux in a 0.5 mm beam radius. The UV optical power transmitted through the sample was detected by a Hamamatsu S127-66BR UV detector, and the output of the photodetector was measured using a Keithley 236 source measure unit. Next, the foot-pad epidermis of a mouse was measured for UV transmission by placing it on a quartz coverslip and exposure to the UV beam. The vehicle-control group was treated with the alcohol and glycerol solution only. Another control group consisted of a commercially-available SPF100 preparation sunscreen in form of a cream, which was applied similar to the vehicle-control. The data for the GSK205 and sunscreen was normalized to this control data.
To validate these finding, we tested UVB absorption in GSK205-treated paw-pad skin, and whether GSK205 thus functions as sunscreen.

CN(CCc1ccc(Nc2nc(-c3cccnc3)cs2)cc1)Cc1ccccc1 [GSK205]
secretion of periostin by histamine-stimulated keratinocytes [1]: completely eliminated | histamine-Ca++ response ([2]; 10 μM GSK205 10 min pre-treatment, 100 μM histamine): eliminated completely | Ca++ response to activation of H1R ([2]; 10 μM GSK205, 100 μM 2-Pyridylethylamine): eliminated completely | Ca++ response to H4R ([2]; 10 μM GSK205, 100 μM 4-Methylhistamine): significantly attenuated | ET1 immunoreactivity in UVB-exposed 1° MK (ET1 expression in 1° MK): diminished; also recorded: significant down-regulation | UVB permeation of paw-pad skin [3]: equal UVB permeation; also recorded: absence of a change in UVB permeation
